In one assay the test system is HeLa. Nature of the assay: Inhibitory activity against HeLa cell line using 3-(4,5-dimethylthiazol-2-yl)-2,5-diphenyltetrazolium bromide (MTT, Sigma) assay.
Assay [1] is described as follows: Dose required to inhibit HLF cells by 50 percent. The following applies: Homo sapiens, read-out: LD50.

Where “and” joins values, the source holds several entries; their conditions need not be identical. Equal values may be shown once.

Consider `NCCNCCNCCN` [TRIENTINE], for which the IC50 in the assay with HeLa is 74.8 µM and 7.8 µM. Also, in assay [1], the CC50 was 3.1 mM.

As usually defined, the IC50 is the midpoint of a concentration-inhibition curve. The low end stands for greater potency in that assay, the high end for weaker potency in that assay.

The record behind these values is ChEMBL document CHEMBL1145870, “Triethylene tetraamine: a novel telomerase inhibitor” (Bioorg Med Chem Lett, 2003).
